Assay results published in patent publication US11168067B2, “Substituted quinazoline compound having blood-brain barrier penetration capability” (WEISHANG (SHANGHAI) BIO-PHARMACEUTICAL CO., LTD., priority 2016, dated 2021).

Assays:
[1] = Blood-brain barrier penetration (brain tissue to plasma concentration ratio); assay type: in vivo; conditions: rat, rats, four hours after dosing
Experimental: To determine whether the compound was able to cross the blood-brain barrier (BBB), the rats were administered with the test compound. Four hours after dosing, rats were sacrificed, blood and brain tissue were collected and the concentration of the test compound was analyzed. Brain permeation is defined as the ratio of the concentration of the compound in the brain tissue to the concentration in the plasma. P-glycoprotein is the blood-brain barrier efflux protein, […].

[2] = tested on: PC-9 tumor cell; test: CellTiter-Glo (CTG) cell viability assay, PC-9 tumor cell growth inhibition; conditions: Homo sapiens, PC-9, 72 h, read-out: PC-9 tumor cell growth inhibition IC50
Experimental: Cell viability of tumor cells with EGFR-activated mutations (exon 19-deficient Exon 19 Del) protein was detected using CellTiter-Glo (CTG) assay; about 5000 cells were seeded in each blank 96-well plate, 16 hours later, add the proportionally diluted compound, equilibrated at room temperature for 72 hours after the addition of the drug for 30 minutes. 100 μl of CellTiter-Glo reagent was added to each well and the orbital shaker was mixed for 2 minutes to induce cell lysis. The plate was incubated at room temperature for 10 minutes to stabilize the luminescence signal. The TECAN Infinite M1000 Pro instrument records the luminescence signal.

[3] = molecular target: P-glycoprotein (Homo sapiens, UniProt P08183); test: P-glycoprotein efflux substrate; assay type: in vitro ADME
[4] = tested on: PC-9-luc tumor cells; test: Efficacy study on intracranial animal model (PC-9-luc); assay type: in vivo; conditions: Iressa human equivalent dose, 8 mice per group
Source text: The injection was slowly preceded over a one-minute period. Upon completing injection, the needle was retained for another minute. After the needle removal, the hole was sealed with bone wax and the incision was closed. The tumor growth was monitored by image analysis. On Day 10, mice were randomized into 5 groups (8 mice per group) and start the treatments for three weeks.
The tumor growth was monitored by bioiluminense intensity. […] The survival benefits (no death or bodyweight loss less than 18%) treatment with compound X disclosed in table 3.

Chain of P-glycoprotein (P08183 whole entry): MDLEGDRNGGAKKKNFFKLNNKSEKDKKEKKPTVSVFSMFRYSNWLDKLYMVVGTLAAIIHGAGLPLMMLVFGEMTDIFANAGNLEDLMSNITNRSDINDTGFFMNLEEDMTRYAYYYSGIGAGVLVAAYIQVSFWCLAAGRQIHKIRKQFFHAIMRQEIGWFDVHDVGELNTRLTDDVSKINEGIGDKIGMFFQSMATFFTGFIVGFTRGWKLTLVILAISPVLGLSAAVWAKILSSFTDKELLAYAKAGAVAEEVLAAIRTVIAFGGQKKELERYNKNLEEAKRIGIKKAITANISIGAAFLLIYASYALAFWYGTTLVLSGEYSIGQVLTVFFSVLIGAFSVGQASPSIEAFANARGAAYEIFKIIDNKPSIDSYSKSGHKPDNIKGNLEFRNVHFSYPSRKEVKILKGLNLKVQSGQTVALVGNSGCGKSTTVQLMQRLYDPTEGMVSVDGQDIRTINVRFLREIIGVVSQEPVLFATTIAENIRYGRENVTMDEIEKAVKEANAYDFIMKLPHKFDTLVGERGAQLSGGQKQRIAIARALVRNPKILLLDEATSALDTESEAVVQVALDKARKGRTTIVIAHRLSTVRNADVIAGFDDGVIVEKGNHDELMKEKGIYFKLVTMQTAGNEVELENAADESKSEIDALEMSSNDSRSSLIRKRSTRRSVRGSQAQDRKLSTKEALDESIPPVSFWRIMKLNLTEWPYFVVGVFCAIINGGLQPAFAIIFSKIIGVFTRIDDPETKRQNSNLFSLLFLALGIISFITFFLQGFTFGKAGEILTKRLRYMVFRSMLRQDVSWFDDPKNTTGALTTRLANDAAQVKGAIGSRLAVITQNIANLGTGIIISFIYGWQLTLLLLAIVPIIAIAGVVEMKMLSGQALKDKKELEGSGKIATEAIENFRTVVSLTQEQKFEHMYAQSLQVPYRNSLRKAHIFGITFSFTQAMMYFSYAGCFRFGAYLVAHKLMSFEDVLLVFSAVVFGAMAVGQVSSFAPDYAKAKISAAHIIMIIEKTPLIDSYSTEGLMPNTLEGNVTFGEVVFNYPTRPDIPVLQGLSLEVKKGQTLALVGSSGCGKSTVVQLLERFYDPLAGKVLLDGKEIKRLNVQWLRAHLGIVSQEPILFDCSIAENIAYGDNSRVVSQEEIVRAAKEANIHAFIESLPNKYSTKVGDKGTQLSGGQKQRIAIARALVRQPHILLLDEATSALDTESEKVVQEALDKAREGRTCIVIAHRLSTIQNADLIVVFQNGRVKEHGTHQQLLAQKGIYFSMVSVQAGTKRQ

[2H]C([2H])([2H])Oc1cc2ncnc(Nc3ccc(F)c(Cl)c3F)c2cc1O[C@H]1CCN(C2COC2)CC1(F)F [Compound 29, (S)—N-(3-chloro-2,4-difluorophenyl)-6-((3,3-difluoro-1-(oxetan-3-yl)piperidin-4-yl)oxy)-7-(methoxy-d3)quinazolin-4-amine]
Kp at 4 h [1]: > 0.3
IC50 [2]: < 1 nM

COc1cc2ncnc(Nc3ccc(F)c(Cl)c3)c2cc1OCCCN1CCOCC1 [Iressa, gefitinib]
Kp at 4 h [1]: < 0.05
P-glycoprotein efflux substrate [3]: yes
survival (no death or bodyweight loss less than 18%), mice at D 20 ([4]; D 20 post tumor implantation): 8
survival, mice at D 24 ([4]; D 24 post tumor implantation): 7
survival, mice at D 27 ([4]; D 27 post tumor implantation): 7
survival, mice at D 28 ([4]; D 28 post tumor implantation): 7
survival, mice at D 30 ([4]; D 30 post tumor implantation): 7
survival, mice at D 31 ([4]; D 31 post tumor implantation): 4
